Measurements published in PMC10653547, “Synergistic effect of two antimicrobial peptides, BP203 and MAP-0403 J-2 with conventional antibiotics against colistin-resistant Escherichia coli and Klebsiella pneumoniae clinical isolates” (PLOS ONE, 2023).
≈ marks a conversion by molar mass, not a printed value. Where two headings read alike, the source gives them in different places. No end group written: not given here.

Key:
E. coli ATCC 25922 [1] = test system: E. coli ATCC 25922
Protocol: (§1) The MICs of BP203 and MAP-0403 J-2 against clinically colistin-resistant E. coli and K. pneumoniae isolates were determined using the broth microdilution method, according to CLSI recommendations. Briefly, the peptides were subjected to serial dilution in cation-adjusted Mueller-Hinton broth (CAMHB) and added to a 96-well microtiter plate (Wuxi NEST Biotechnology, Wuxi, China). Subsequently, bacterial suspensions from freshly mid-log phase cultures were diluted to 10^6 CFU/mL with CAMHB, and introduced to each well containing the peptides.
(§2) The antibacterial activity of BP203 and MAP-0403 J-2 was evaluated concerning their response to temperature, pH, serum, and salt ions using the MIC assay, following the previously mentioned procedure. The MIC values of peptides were determined against E. coli ATCC29522 and K. pneumoniae ATCC BAA-1706. […] For the pH stability assay, both peptides were incubated in buffers with different pH values (100 mM buffers: glycine-HCl buffer (pH 2.0), sodium acetate buffer (pH 4.0), sodium phosphate buffer (pH 6.0), Tris-HCl buffer (pH 8.0), and glycine-NaOH buffer (pH 10.0)) for 1 h at 37°C. […] For serum stability assay, both peptides were exposed to 25% and 50% fetal bovine serum (FBS) for 1 h at 37°C, followed by a heat activation step for 30 min at 60°C. Afterward, the peptide solutions were serially diluted and MIC was subsequently determined. For the salt stability assay, each peptide was treated in MHB supplemented with different salts at their physiological concentrations; NaCl (100, 150, and 200 mM), MgCl2 (0.5, 1 and 2 mM), and FeCl3 (1, 4 and 8 mM). The serial dilutions of peptides were incubated with tested strains for MIC testing. The MICs were observed after 20–24 h of incubation at 37°C.

E. coli ATCC 25922 [2] = test system: E. coli ATCC 25922; remark: listed apart in the source
Protocol: as §1
as §2, with “For the salt stability assay, each peptide was treated in MHB supplemented with different salts at their physiological concentrations; NaCl (100, 150, and 200 mM), MgCl2 (0.5, 1 and 2 mM), and FeCl3 (1, 4 and 8 mM).” left out

[3] = test system: K. pneumoniae ATCC BAA-1706
Protocol: as §1
as §2, with “For the salt stability assay, each peptide was treated in MHB supplemented with different salts at their physiological concentrations; NaCl (100, 150, and 200 mM), MgCl2 (0.5, 1 and 2 mM), and FeCl3 (1, 4 and 8 mM).” left out

[4] = cited from earlier work
Excerpt: The stability of AMPs is crucial for storage and applications. Temperature and pH are critical parameters impacting AMP stability. In addition, the good stability of AMPs to physiological salts and serum has been considered a desirable property for clinical applications. In this study, BP203 and MAP-0403 J-2 retained antibacterial activity under elevated temperatures, various pH conditions, and in the presence of physiological salts and serum environment. […] The hemolytic activity of BP203 at 150 μM (~300 μg/mL) wa ...

[5] = 25% fetal bovine serum, 1 h at 37 °C
[6] = 50% fetal bovine serum, 1 h at 37 °C
[7] = pH 2, 100 mM glycine-HCl buffer, 1 h at 37 °C, neutralized
[8] = pH 4, 100 mM sodium acetate buffer, 1 h at 37 °C, neutralized
[9] = pH 6, 100 mM sodium phosphate buffer, 1 h at 37 °C, neutralized
[10] = pH 8, 100 mM Tris-HCl buffer, 1 h at 37 °C, neutralized
[11] = pH 10, 100 mM glycine-NaOH buffer, 1 h at 37 °C, neutralized
[12] = peptide incubated 1 h at 25 °C (control)

CC[C@H](C)[C@H](NC(=O)[C@H](CCCCN)NC(=O)[C@H](CCCCN)NC(=O)[C@H](Cc1ccccc1)NC(=O)[C@H](CC(C)C)NC(=O)[C@H](CCCCN)NC(=O)[C@@H](N)CCCCN)C(=O)N[C@@H](CC(C)C)C(=O)N[C@@H](CCCNC(=N)N)C(=O)N[C@@H](Cc1ccc(O)cc1)C(=O)N[C@@H](CC(C)C)C(N)=O [BP203]
MIC after FBS treatment (E. coli ATCC 25922 [1]; 0% FBS (control)): 4 µg/mL (≈ 2.76 µM)
MIC after FBS treatment (E. coli ATCC 25922 [1]; [5]): 4 µg/mL (≈ 2.76 µM)
MIC after FBS treatment (E. coli ATCC 25922 [1]; [6]): 8 µg/mL (≈ 5.52 µM)
MIC after pH treatment (E. coli ATCC 25922 [1]; [7]): 4 μg/mL
MIC after pH treatment (E. coli ATCC 25922 [1]; [8]): 4 μg/mL
MIC after pH treatment (E. coli ATCC 25922 [1]; [9]): 4 μg/mL
MIC after pH treatment (E. coli ATCC 25922 [1]; pH 7 (control)): 4 μg/mL
MIC after pH treatment (E. coli ATCC 25922 [1]; [10]): 4 μg/mL
MIC after pH treatment (E. coli ATCC 25922 [1]; [11]): 4 μg/mL
MIC after temperature treatment (E. coli ATCC 25922 [1]; [12]): 4 µg/mL (≈ 2.76 µM)
MIC after temperature treatment (E. coli ATCC 25922 [1]; peptide incubated 1 h at 37 °C): 4 µg/mL (≈ 2.76 µM)
MIC after temperature treatment (E. coli ATCC 25922 [1]; peptide incubated 1 h at 50 °C): 4 µg/mL (≈ 2.76 µM)
MIC after temperature treatment (E. coli ATCC 25922 [1]; peptide incubated 1 h at 70 °C): 4 µg/mL (≈ 2.76 µM)
MIC after temperature treatment (E. coli ATCC 25922 [1]; peptide incubated 1 h at 90 °C): 4 µg/mL (≈ 2.76 µM)
MIC in the presence of physiological salts (E. coli ATCC 25922 [2]; Control, 0): 4 μg/mL
MIC in the presence of physiological salts (E. coli ATCC 25922 [2]; FeCl3 1 μM): 4 μg/mL
MIC in the presence of physiological salts (E. coli ATCC 25922 [2]; FeCl3 4 μM): 4 μg/mL
MIC in the presence of physiological salts (E. coli ATCC 25922 [2]; FeCl3 8 μM): 4 μg/mL
MIC in the presence of physiological salts (E. coli ATCC 25922 [2]; MgCl2 0.5 mM): 4 μg/mL
MIC in the presence of physiological salts (E. coli ATCC 25922 [2]; MgCl2 1 mM): 4 μg/mL
MIC in the presence of physiological salts (E. coli ATCC 25922 [2]; MgCl2 2 mM): 8 μg/mL
MIC in the presence of physiological salts (E. coli ATCC 25922 [2]; NaCl 100 mM): 8 μg/mL
MIC in the presence of physiological salts (E. coli ATCC 25922 [2]; NaCl 150 mM): 16 μg/mL
MIC in the presence of physiological salts (E. coli ATCC 25922 [2]; NaCl 200 mM): 16 μg/mL
MIC in the presence of physiological salts ([3]; Control, 0): 4 μg/mL
MIC in the presence of physiological salts ([3]; FeCl3 1 μM): 4 μg/mL
MIC in the presence of physiological salts ([3]; FeCl3 4 μM): 8 μg/mL
MIC in the presence of physiological salts ([3]; FeCl3 8 μM): 8 μg/mL
MIC in the presence of physiological salts ([3]; MgCl2 0.5 mM): 4 μg/mL
MIC in the presence of physiological salts ([3]; MgCl2 1 mM): 8 μg/mL
MIC in the presence of physiological salts ([3]; MgCl2 2 mM): 8 μg/mL
MIC in the presence of physiological salts ([3]; NaCl 100 mM): 8 μg/mL
MIC in the presence of physiological salts ([3]; NaCl 150 mM): 16 μg/mL
MIC in the presence of physiological salts ([3]; NaCl 200 mM): 16 μg/mL
Hemolytic activity ([4]; at 150 μM (~300 μg/mL)): 31%

KWLRRPWRRWR-NH2 [MAP-0403 J-2]
MIC after FBS treatment (E. coli ATCC 25922 [1]; 0% FBS (control)): 16 µg/mL
MIC after FBS treatment (E. coli ATCC 25922 [1]; [5]): 16 µg/mL
MIC after FBS treatment (E. coli ATCC 25922 [1]; [6]): 32 µg/mL
MIC after pH treatment (E. coli ATCC 25922 [1]; [7]): 16 μg/mL
MIC after pH treatment (E. coli ATCC 25922 [1]; [8]): 16 μg/mL
MIC after pH treatment (E. coli ATCC 25922 [1]; [9]): 16 μg/mL
MIC after pH treatment (E. coli ATCC 25922 [1]; pH 7 (control)): 16 μg/mL
MIC after pH treatment (E. coli ATCC 25922 [1]; [10]): 16 μg/mL
MIC after pH treatment (E. coli ATCC 25922 [1]; [11]): 16 μg/mL
MIC after temperature treatment (E. coli ATCC 25922 [1]; [12]): 16 µg/mL
MIC after temperature treatment (E. coli ATCC 25922 [1]; peptide incubated 1 h at 37 °C): 16 µg/mL
MIC after temperature treatment (E. coli ATCC 25922 [1]; peptide incubated 1 h at 50 °C): 16 µg/mL
MIC after temperature treatment (E. coli ATCC 25922 [1]; peptide incubated 1 h at 70 °C): 16 µg/mL
MIC after temperature treatment (E. coli ATCC 25922 [1]; peptide incubated 1 h at 90 °C): 16 µg/mL
MIC in the presence of physiological salts (E. coli ATCC 25922 [2]; Control, 0): 16 μg/mL
MIC in the presence of physiological salts (E. coli ATCC 25922 [2]; FeCl3 1 μM): 16 μg/mL
MIC in the presence of physiological salts (E. coli ATCC 25922 [2]; FeCl3 4 μM): 16 μg/mL
MIC in the presence of physiological salts (E. coli ATCC 25922 [2]; FeCl3 8 μM): 16 μg/mL
MIC in the presence of physiological salts (E. coli ATCC 25922 [2]; MgCl2 0.5 mM): 16 μg/mL
MIC in the presence of physiological salts (E. coli ATCC 25922 [2]; MgCl2 1 mM): 16 μg/mL
MIC in the presence of physiological salts (E. coli ATCC 25922 [2]; MgCl2 2 mM): 16 μg/mL
MIC in the presence of physiological salts (E. coli ATCC 25922 [2]; NaCl 100 mM): 32 μg/mL
MIC in the presence of physiological salts (E. coli ATCC 25922 [2]; NaCl 150 mM): 64 μg/mL
MIC in the presence of physiological salts (E. coli ATCC 25922 [2]; NaCl 200 mM): 64 μg/mL
MIC in the presence of physiological salts ([3]; Control, 0): 16 μg/mL
MIC in the presence of physiological salts ([3]; FeCl3 1 μM): 16 μg/mL
MIC in the presence of physiological salts ([3]; FeCl3 4 μM): 16 μg/mL
MIC in the presence of physiological salts ([3]; FeCl3 8 μM): 32 μg/mL
MIC in the presence of physiological salts ([3]; MgCl2 0.5 mM): 16 μg/mL
MIC in the presence of physiological salts ([3]; MgCl2 1 mM): 16 μg/mL
MIC in the presence of physiological salts ([3]; MgCl2 2 mM): 16 μg/mL
MIC in the presence of physiological salts ([3]; NaCl 100 mM): 32 μg/mL
MIC in the presence of physiological salts ([3]; NaCl 150 mM): 64 μg/mL
MIC in the presence of physiological salts ([3]; NaCl 200 mM): 64 μg/mL
Hemolytic activity ([4]; at 100 μM (~678 μg/mL)): 3.4%
